The values that follow are results of earlier work, collected in patent US20110071026A1, “LOW VISCOSITY, AQUEOUS […] CONCENTRATES” (priority 2009, published 2011).

For the data set the following is noted: at 25° C.; acid form.

For `O=C(O)CNCP(=O)(O)O` [glyphosate, N-(phosphonomethyl)glycine], the solubility in water result is reported as “about 12 g/L”.
